GI50 and TGI data for six compounds are collected here from PubChem BioAssay (NCI).

Test systems include HOP-62 NSCLC; MDA-MB-435; SN12C renal; OVCAR-3 ovarian; NCI/ADR-RES ovarian; HT29 colon; HOP-92 NSCLC; HS 578T breast; TK-10 renal; EKVX NSCLC.
Test in all cases: NCI-60 cell line screen, 48 h

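Dose response: 5 concentrations. Exposure: 48 h. Format: 96-well plates. Endpoint: linear interpolation; highest concentration if not reached. GI50 is the concentration that inhibits growth by half. Definition used: TGI = concentration required for complete inhibition of growth.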

Regarding `NC(=O)c1c(NC(=O)c2ccccc2)sc2c1CCC(=O)C2`, the GI50 was 3.66 µM in the assay on HOP-62 NSCLC; 3.09 µM with MDA-MB-435; 0.612 µM in the assay on SN12C renal; 1.02 µM in the assay on OVCAR-3 ovarian; 1.28 µM in the assay on NCI/ADR-RES ovarian; 2.33 µM with HT29 colon. Also, the GI50 with HOP-92 NSCLC is 1.42 µM; in the assay with HS 578T breast, 1.2 µM; in the assay with TK-10 renal, 6.91 µM; in the assay with EKVX NSCLC, 1.82 µM. Further, the TGI is above 100 µM in the assay on HOP-62 NSCLC; 10.5 µM in the assay with MDA-MB-435; 11.5 µM in the assay with SN12C renal; 2.72 µM in the assay on OVCAR-3 ovarian; 10.4 µM in the assay with NCI/ADR-RES ovarian; above 100 µM in the assay with HT29 colon. Moreover, the TGI in the assay on HOP-92 NSCLC is 4.99 µM; with HS 578T breast, 6.97 µM; with TK-10 renal, above 100 µM; in the assay on EKVX NSCLC, 11.5 µM.
Turning to `O=C1CC2(CCC(O)(c3ccc4ccccc4c3)C(C(=O)c3ccc4ccccc4c3)C2)C(=O)c2ccccc2N1` (centres undefined), the TGI in the assay on HOP-62 NSCLC, with MDA-MB-435, with SN12C renal, in the assay on OVCAR-3 ovarian, with NCI/ADR-RES ovarian and in the assay on HT29 colon was above 100 µM in each case. Besides, the TGI with HOP-92 NSCLC, with HS 578T breast, in the assay with TK-10 renal and in the assay with EKVX NSCLC was above 100 µM each time.
Turning to `C[n+]1c(/C=C/c2c(O)ccc3ccccc23)ccc2ccccc21`, the GI50 in the assay with HOP-62 NSCLC was 6.25 µM; with MDA-MB-435, 5.84 µM; in the assay on SN12C renal it was 6.08 µM; in the assay with OVCAR-3 ovarian it was 2.29 µM; with NCI/ADR-RES ovarian it was 5.64 µM; in the assay with HT29 colon, 2.04 µM. Also, the GI50 in the assay on HOP-92 NSCLC was 0.854 µM; with HS 578T breast, 5.3 µM; with TK-10 renal it was 5.49 µM; in the assay with EKVX NSCLC, 4.72 µM. In addition, the TGI in the assay with HOP-62 NSCLC was 13.8 µM; in the assay on MDA-MB-435 it was 12.6 µM; in the assay with SN12C renal, 13.6 µM; in the assay with OVCAR-3 ovarian, 8.38 µM; with NCI/ADR-RES ovarian, 14.5 µM; in the assay with HT29 colon, 7.63 µM. In addition, the TGI worked out at 6.17 µM with HOP-92 NSCLC, 21.5 µM with HS 578T breast, 11.7 µM in the assay on TK-10 renal and 12.9 µM in the assay with EKVX NSCLC.
Turning to `COc1cc2c(cc1OC)C(C(c1ccccc1)c1ccccc1)N(C)CC2` (centres undefined), the TGI in the assay on HOP-62 NSCLC was above 100 µM; with SN12C renal, above 100 µM; with OVCAR-3 ovarian, above 100 µM; in the assay on NCI/ADR-RES ovarian, above 100 µM; in the assay with HT29 colon, above 100 µM; in the assay with HOP-92 NSCLC, above 70.8 µM. The TGI with EKVX NSCLC is above 100 µM.
`C[N+](C)([O-])CCOc1cc2c(c3ccccc13)-c1ccccc1C2=O`: the TGI in the assay with HOP-62 NSCLC was 69.6 µM; in the assay with SN12C renal, 62.3 µM; with OVCAR-3 ovarian, above 52.6 µM; with NCI/ADR-RES ovarian, above 100 µM; in the assay on HT29 colon, above 35.6 µM; in the assay on HOP-92 NSCLC, above 68.5 µM. Moreover, the TGI with EKVX NSCLC stood at 64.7 µM.
Take `O=c1oc2cc(O)ccc2c(O)c1C(c1ccccc1)c1c(O)c2ccc(O)cc2oc1=O`: the TGI in the assay with HOP-62 NSCLC, in the assay on MDA-MB-435, in the assay on SN12C renal, with OVCAR-3 ovarian, in the assay on NCI/ADR-RES ovarian and with HT29 colon was above 100 µM in each case. For the same compound, the TGI with HOP-92 NSCLC, with HS 578T breast, with TK-10 renal and in the assay with EKVX NSCLC was above 100 µM each time.
